The text below walks through data of US20060104969A1, “Compositions and methods for enhancing structural and functional nervous system reorganization and recovery” (Massachusetts Institute of Technology, priority 2004, published 2006).

In one data set the test system is axon growth. The settings on record: cited from earlier work.
Data set [1] has as its system rats with spinal cord injury (SCI). In words: Recovery of locomotor function (BBB scale) after T10 contusive spinal cord injury. In kind it is in vivo, Sprague-Dawley rats. From the text:
FIGS. 8A and 8B show the effect of tPA on recovery of locomotor function graded on the BBB scale (y-axis; Basso et al., 1995 J. Neurotrauma) that ranges from 21 in normal rats to 0 in rats with complete hind limb paralysis. FIG. 8A presents a time course in which data points represent the group average±SEM (n=3/group) scored at different time points post T10 contusive injury. […] The dip of the curves starting at week 7 in both of the experimental groups was caused by the intra-cerebral cortex injections of axonal tract tracer BDA which was done at week 6 after injury. FIG. 8B presents a bar graph showing results of a second experiment in which data points represent the group average±SEM (n=7/group).
In a first set of experiments, 6 female Sprague-Dawley rats were anesthetized and spinal cord injury (SCI) was induced at TIO by using the New York University impactor with a 10 gm weight and a 12.5 mm weight drop. Behavioral tests were conducted on the first post-operative day and then weekly. The BBB (Basso, Beattie, Bresnahan) behavioral test was used to examine hind limb reflexes as well as coordinated use of the hind limbs (Basso et al., 1995; Basso, et al., 1996). This “BBB” scale has been adopted by the Multicenter Animal Spinal Cord Injury Study and by other workers in the field. […]

Data set [2] is described as follows: tPA activity in the solution remaining in implanted minipumps. In kind it is physicochemical. The settings on record: rat body temperature; delivered from a minipump reservoir. Here is the method: Three days post-operatively, a second operation was conducted at T8-T9 for a bolus micro-injection of 10 μg of tPA (human two-chain tissue plasminogen activator; American Diagnostica, Inc.) reconstituted from lyophilized powder to 10 μg/10 μL) into three of the six rats. Following the bolus injection, an osmotic minipump (Alzet Model 2002: 14 day pump) (Durect Corp., Cupertino, Calif.) loaded with tPA (200 μL total volume, delivering 0.5 μL/hour, 10 μg tPA/day) was implanted at the side of injury and delivered tPA for 10 consecutive days. At the 6th post-operative week, BDA and Fluorogold injections were made in cortex to assess the extent of corticospinal tract regrowth and reconnection, and at the 10th post-operative week, animals were perfused and their spinal cords were removed for histological analysis. Implanted minipumps were saved for analysis of tPA activity in the remaining solution.

Data set [3] relates to dendritic spines of layer V pyramidal neurons in visual cortex slices. In words: Spine motility in acute visual cortex slices before and after enzyme application (two-photon imaging). It counts as cell-based, mice. The following applies: p28 non-deprived slices; 45 minute enzyme application; tPA 0.5 μg/mL without exogenous plasminogen, plasmin 0.2 U/mL; p<0.0001. Here is the method: Two photon imaging. Mice were prepared for in vivo imaging and imaged as described previously (Majewska and Sur, 2003). Briefly, primary visual cortex was identified using stereotaxic coordinates and either a small craniotomy was drilled in this area, or the skull was thinned without making a craniotomy. Imaging was performed with a custo m-made two-photon microscope consisting of a Ti:S laser (Tsunami, Spectra-physics, Menlo Park, Calif.) pumped by a 10W solid state source (Millennia, Spectra-physics) coupled to a modified Fluoview confocal scanhead (Olympus, Melville, N.Y.). Superficial dendrites were initially identified with wide-field epi-fluorescence illumination, and were subsequently imaged using a 60×, 0.9 N.A. lens with digital zoom (5-10×). Volumetric z-stacks were typically collected with a 800×600 acquisition window with 0.5-1 μm z-steps every five minutes over two hours. […]
Z-stack images were exported to MATLAB (Mathworks, Natick, Mass.) and processed using custom algorithms. Spine motility was analyzed on two-dimensional projections in ImageJ (NIH, Bethesda, Md.), where motility was defined as the average change in spine length per unit time (Lendvai et al., 2000; Majewska and Sur, 2003). […]

Data set [4] has as its system rats with middle cerebral artery occlusion (MCAO). Nature of the data set: Forelimb inhibition behavioral test after middle cerebral artery occlusion (MCAO). It counts as in vivo. The settings on record: intraventricular infusion 2 or 10 μg/day for 7 days, started 2 days after MCAO. Here is the method:
Twenty rats were trained on a battery of behavioral tasks until they achieved an asymptotic level of competence. Rats then received occlusion of the middle cerebral artery (MCAO) according to standard procedures. […] At the time of MCAO surgery, 10 of the 20 rats were also implanted with an osmotic mini-pump (Alzet model 2001, 7 day pump with […] and 1.0 μL/hour infusion) for intraventricular infusion contralateral to the site of the MCAO. The mini-pumps were filled with human two-chain tissue plasminogen activator (tPA; American Diagnostica, Inc.) at two different concentrations: 5 animals received 2 μg/day and 5 animals received 10 μg/day. tPA treatment was initiated 2 days following MCAO and was maintained for 7 days. Control and tPA-treated rats were subsequently tested weekly for behavioral recovery.
Initial results regarding one of the behavioral tests, forelimb inhibition, are striking. Normal animals rarely use their forelimbs while swimming across a test basin, a phenomenon referred to as “inhibition”. After stroke, this inhibition is reduced, so that forelimb use increases. […] On other tests, there was less difference between tPA treated animals and controls though this and other data is still being analyzed.

Data set [5] deals with spinal cord injury epicenter tissue. Nature of the data set: Histological analysis of the spinal cord injury epicenter (hematoxylin and eosin, solvent blue). It counts as in vivo, Sprague-Dawley rats. The text has this: FIG. 9 presents micrographs showing the overall microscopic difference in injury epicenter pathology between rats receiving tPA or vehicle in the area of residual total tissue (hematoxylin and eosin stain).
FIG. 10 presents micrographs showing the overall difference between rats receiving tPA (left panel) or vehicle (right panel) in the typical cross-sectional area of residual total white matter (WM) at the injury epicenter (e.g. WM+hypomyelinated WM). […] In contrast, SB stain in the vehicle treated spinal cord was much weaker, indicating much lower quantity presence of myelin in the tissue.
Sections were stained with solvent blue [SB]/hematoxylin and eosin as described in Teng and Wrathall, 1997.
Three days post-operatively, a second operation was conducted at T8-T9 for a bolus micro-injection of 10 μg of tPA (human two-chain tissue plasminogen activator; American Diagnostica, Inc.) reconstituted from lyophilized powder to 10 μg/10 μL) into three of the six rats. Following the bolus injection, an osmotic minipump (Alzet Model 2002: 14 day pump) (Durect Corp., Cupertino, Calif.) loaded with tPA (200 μL total volume, delivering 0.5 μL/hour, 10 μg tPA/day) was implanted at the side of injury and delivered tPA for 10 consecutive days. […]

The test system of data set [6] is dendritic spines in visual cortex slices contralateral to the deprived eye. In words: Spine motility in visual cortex slices after monocular deprivation, followed by plasmin application (occlusion test). It counts as cell-based, mice. On the procedure: Mice (C57/B16) expressing GFP (strain GFP-M) or YFP (strain YFP-H) in a subset of their cortical neurons (principally layer V pyramidal neurons) (Feng, G., et al., 2000) were anesthetized at postnatal days 26 or 40 and maintained in deep anesthesia using isoflurane. Monocular deprivation was performed by scoring the eyelids and then sealing them shut with tissue adhesive (Vetbond, 3M, St. Paul, Minn.). Mice were checked over the next 2-3 days to ensure that the eye remained closed. A total of 18 mice were used in the in vivo experiments (6 control, 4 deprived at p28; 4 control, 4 deprived at p42) and 24 mice were used in the slice experiments (15 control, 9 deprived).
Z-stack images were exported to MATLAB (Mathworks, Natick, Mass.) and processed using custom algorithms. Spine motility was analyzed on two-dimensional projections in ImageJ (NIH, Bethesda, Md.), where motility was defined as the average change in spine length per unit time (Lendvai et al., 2000; Majewska and Sur, 2003). Spine turnover was rarely observed in single imaging sessions. All values are presented as mean±standard error of the mean and all statistical analyses were performed using either a parametric t-test statistic for populations of monocularly deprived and control spines, or a parametric paired t-test statistic for enzymatic treatments.
Slice preparation and enzyme application. […]

Consider `O=c1onc2cnc3ccccc3n12` [ODQ], for which the “effective dose for influencing axon growth” value with axon growth is on record as “about 10 uM”.
Consider tissue plasminogen activator [tPA], for which, in data set [1] (after 10 weeks of recovery, first experiment, n=3/group, 10 μg bolus then 10 μg tPA/day for 10 days by minipump, baseline 21), the “final score on the BBB test” value is given as about 9. In data set [1] (second experiment, n=7/group, tPA delivered for 7 days), the “BBB scores relative to control animals” value was “improved BBB scores”. Moreover, the “time for which tPA maintains enzymatic activity” value in data set [2] is listed as “up to 10 days”. The “increase in spine motility” value in data set [3] was 17%. Besides, in data set [4], the “forelimb use while swimming (forelimb inhibition)” value was “much less than control animals”. For the same molecule, in data set [5] (in comparison to control), the “appearance of the contusion site, hematoxylin and eosin staining” value is reported as “remarkably clean”. In addition, the “integrity of residual white matter at the injury epicenter, solvent blue stain” value in data set [5] (versus vehicle) is on record as “significantly protected the integrity of the residual white matter”.

B1: plasmin (protein, UniProt P00747 20-580; P00747 581-810, looked up)
Plasmin heavy chain A: EPLDDYVNTQGASLFSVTKKQLGAGSIEECAAKCEEDEEFTCRAFQYHSKEQQCVIMAENRKSSIIIRMRDVVLFEKKVYLSECKTGNGKNYRGTMSKTKNGITCQKWSSTSPHRPRFSPATHPSEGLEENYCRNPDNDPQGPWCYTTDPEKRYDYCDILECEEECMHCSGENYDGKISKTMSGLECQAWDSQSPHAHGYIPSKFPNKNLKKNYCRNPDRELRPWCFTTDPNKRWELCDIPRCTTPPPSSGPTYQCLKGTGENYRGNVAVTVSGHTCQHWSAQTPHTHNRTPENFPCKNLDENYCRNPDGKRAPWCHTTNSQVRWEYCKIPSCDSSPVSTEQLAPTAPPELTPVVQDCYHGDGQSYRGTSSTTTTGKKCQSWSSMTPHRHQKTPENYPNAGLTMNYCRNPDADKGPWCFTTDPSVRWEYCNLKKCSGTEASVVAPPPVVLLPDVETPSEEDCMFGNGKGYRGKRATTVTGTPCQDWAAQEPHRHSIFTPETNPRAGLEKNYCRNPDGDVGGPWCYTTNPRKLYDYCDVPQCAAPSFDCGKPQVEPKKCPGR
Plasmin light chain B: VVGGCVAHPHSWPWQVSLRTRFGMHFCGGTLISPEWVLTAAHCLEKSPRPSSYKVILGAHQEVNLEPHVQEIEVSRLFLEPTRKDIALLKLSSPAVITDKVIPACLPSPNYVVADRTECFITGWGETQGTFGAGLLKEAQLPVIENKVCNRYEFLNGRVQSTELCAGHLAGGTDSCQGDSGGPLVCFEKDKYILQGVTSWGLGCARPNKPGVYVRVSRFVTWIEGVMRNN
modifications: Plasmin
notes: serine protease whose major substrate is fibrin (Sigma)
With B1, the “spine motility after additional plasmin application, superficial layers” value in data set [6] (regions where motility is already upregulated, n=88, p>0.5) was “unaffected”. The “spine motility after plasmin treatment, middle regions” value in data set [6] (regions where motility is unchanged by deprivation, n=60, p<0.0001) is “significantly increased”. For the same molecule, in data set [3], the “increase in spine motility” value was 21%.
